{
  "source": "paper PMC3353944",
  "about": "“BC4707 Is a Major Facilitator Superfamily Multidrug Resistance Transport Protein from Bacillus cereus Implicated in Fluoroquinolone Tolerance” (PLoS ONE, 2012)",
  "target": "T1, BC4707 (Bacillus cereus, UniProt Q816V8)",
  "T1 construct": "gene BC_4707; full-length with RGSHis6 tag (kept), expressed from pTTQ18 (pBC4707) in E. coli DH5alpha delta-acrAB",
  "T1 sequence (Q816V8 entry or part of it)": "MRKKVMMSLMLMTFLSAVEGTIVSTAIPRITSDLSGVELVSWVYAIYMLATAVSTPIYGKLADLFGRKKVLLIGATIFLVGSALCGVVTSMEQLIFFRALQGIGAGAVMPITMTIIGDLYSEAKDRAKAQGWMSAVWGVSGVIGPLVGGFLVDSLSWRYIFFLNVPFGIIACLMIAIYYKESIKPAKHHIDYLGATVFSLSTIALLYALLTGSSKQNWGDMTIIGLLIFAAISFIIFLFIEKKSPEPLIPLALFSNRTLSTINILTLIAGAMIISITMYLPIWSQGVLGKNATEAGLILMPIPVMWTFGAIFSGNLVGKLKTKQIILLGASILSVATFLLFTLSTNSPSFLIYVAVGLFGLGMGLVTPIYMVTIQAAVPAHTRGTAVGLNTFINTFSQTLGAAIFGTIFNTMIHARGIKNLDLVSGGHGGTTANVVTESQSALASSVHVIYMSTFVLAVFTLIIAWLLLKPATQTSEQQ",
  "assay": "norfloxacin accumulation assay, fluorescence of cell extracts vs empty-vector cells",
  "format": "cell-based",
  "conditions": "E. coli DH5alpha delta-acrAB, 100 uM norfloxacin, 20 mM glucose, pH 7.0; CCCP (100 uM) added at 15 min",
  "data": [
    {"smiles": "CCn1cc(C(=O)O)c(=O)c2cc(F)c(N3CCNCC3)cc21", "note": "[norfloxacin]", "values": [
      {"measurement": "norfloxacin accumulation assay, fluorescence of cell extracts vs empty-vector ce", "result": "indicating that the presence of BC4707-RGSHis6 prevents accumulation of norfloxacin in the cells"}
    ]}
  ]
}
